From patent US20230357099A1, “PYRAZOLO [3,4-B] PYRIDINE-4-CARBOXAMIDE NITRIFICATION INHIBITOR” (EUROCHEM ANTWERPTEN, priority 2020, published 2023)

Experiments:
[1] = tested on: Candidatus Nitrospira kreftii; assay: Nitrification inhibition in Candidatus Nitrospira kreftii; assay type: cell-based; settings: concentration of 6.25 µM
Description: Candidatus Nitrospira kreftii is a high (90%) enrichment of novel comammox species. To quantify nitrification inhibition in Ca. Nitrospira kreftii, a homogenous sample was taken from the bioreactor, washed and resuspended in sterile NOB mineral salts medium supplemented with (per liter) 1 mL of a trace element stock solution composed of NTA (15 g/L), ZnSO4 · 7H2O (0.43 g/L), CoCl2 · 6H2O (0.24 g/L), MnCl2 · 4H2O (0.99 g/L), CuSO4 · 5H2O (0.25 g/L), Na2MoO4 · 2H2O (0.22 g/L), NiCl2 · 6H2O (0.19 g/L), NaSeO4·10H2O (0.021 g/L), […] (0.014 g/L), CeCl·6H2O (0.24 g/L) and 1 mL of an iron stock solution composed of NTA (10 g/L) and FeSO4 (5 g/L). The final ammonium concentration was 200 µM.
To increase the nitrification rate, the cell density was increased 5 times via centrifugation. For homogenous distribution of the flocs, Ca. Nitrospira kreftii was continuously stirred during distribution with a multichannel pipet in the 96-well plates. […]
Ammonium concentrations were measured fluorescently via a modified orthophatal-dialdehyde assay. Nitrite and nitrate concentrations were determined consecutively with a spectrophotometer (at 540 nm): for nitrite, after addition of 100 µL Griess reagent to 100 µL sample (10 min incubation at room temperature) and for nitrate, subsequent to secondary addition of 27 µL of a saturated VCl3 solution in HCl (30 min incubation at 60° C.).

[2] = tested on: ABIL (ammonia-binding liquid inoculum), nitrifying microbial enrichment containing both AOA and AOB; assay: Nitrification inhibition assay on ABIL (ammonium consumption); assay type: cell-based; settings: 0% = as strong as 100 µM PTIO, 100% = no inhibition
[3] = tested on: Nitrososphaera viennensis; assay: Nitrification inhibition assay on Nitrososphaera viennensis (nitrite, Griess); assay type: cell-based, Nitrososphaera viennensis EN76T; settings: 0% = as strong as 100 µM PTIO, 100% = no inhibition
In short: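 N. viennensis EN76T cultures in FWM (pH 7.5, NH4Cl-supplemented), 5× concentrated, treated with compounds at 2.5 µM final (0.25% DMSO) and incubated 24 h at 42 °C. Nitrite measured by Griess absorbance at 540 nm against a standard curve. Relative nitrification normalized between DMSO (no compound) and 100 µM PTIO controls.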

CC(C)c1cc(C(=O)N2CCSCC2)c2cnn(C(C)C)c2n1 [Example 2]
inhibition at 6.25 µM [1]: 57.3% | ABIL - relative nitrification (%) at 2 µM ([2]; 2 µM compound): 66% | activity at 10 µM ([2]; 24 h, 10 µM compound, 24 h, read-out: ABIL - relative nitrification (%) at 10 µM): -31% | N. viennensis - relative nitrification (%) at 0.5 µM ([3]; 0.5 µM compound): 100% | N. viennensis - relative nitrification (%) at 5 µM ([3]; 5 µM compound): 75% | N. viennensis - relative nitrification (%) at 25 µM ([3]; 25 µM compound): 0%
